In patent US20090156638A1, “Uses of nordihydroguaiaretic acid (NDGA) and derivatives thereof in preventing transmission of sexually transmitted diseases” (priority 2007, published 2009):

Experiments:
[1] = Stability of M4N ointment formulation; assay type: physicochemical; conditions: 2% wt/wt ointment in white petrolatum, 5 mL containers
Text: Two dosing schemes were used.

[2] = system: acyclovir-resistant strains of HSV-1 (HSV-1^R); conditions: Chen et al., FIG. 3; cited from earlier work
HSV-1 [3] = system: HSV-1
Protocol: The dorsal cutaneous guinea pig model system is a well-established model for HSV-1 infection.
In FIGS. 6A-6D, for topical treatment with M4N sections of shaved and depilated dorsal guinea pig skin were infected equally were infected with HSV-1.
McKrae strain). […] Treatments were administered twice daily and photogragphs were taken at day 6 post-infection. […] Regions 1 and 4 were infected with high levels of HSV-1 (1×10^8 pfu/mL), regions 2 and 5 were infected with moderate levels of HSV-1 (1×10^6 pfu/mL) and regions 3 and 6 were infected with low levels of HSV-1 (1×10^4 pfu/mL).

HSV-1 [4] = assay: Mutation-insensitivity: IC50 against HSV-1 over ten virus passages; assay type: cell-based
Text: In contrast, host factors, unlike viral factors, are under no selective pressure to mutate and are in general structurally invariable. […] Table 1 compares the IC50 of M4N and acyclovir for ten passages.

[5] = Fourteen day rabbit intravaginal irritation study
[6] = 14-day toxicity study in rats, toxicokinetics; assay type: in vivo; conditions: for Tmax / Cmax: rat, plasma; for Tmax: 500 mg/kg; for Cmax: Group 10 (500 mg/kg), Day 14
Protocol: The toxicokinetics study consisted of four dose-groups (0, 50, 100, 500 mg/kg) with 6 animals/sex/group. Approximately 0.7 mL of blood was collected from the jugular vein from 3 rats/sex/group rotated in ascending order for each dose group at 0.5, 1, 4, 8, and 12 hours post-dose on Days 1, 7, and 14. Plasma was isolated and analyzed for M4N by HPLC assay.

[7] = system: Sp1 regulated transcription of HPV E6/E7; assay: Sp1 regulated HPV E6/E7 transcription, luciferase assays and C3 tumor lines; assay type: cell-based; conditions: luciferase assays and HPV induced mouse cervical C3 tumor lines
Text: (§1) The […] (IE) ICP4 gene of HSV is essential for HSV replication.

[8] = Human safety, tolerability and pharmacokinetic study of M4N vaginal ointment
[9] = Single dose s.c. rabbit irritation study
Protocol: 4 male and 2 female New Zealand White rabbits received single s.c. injections of saline (1 mL), DMSO (1 mL), 20 mg (0.1 mL) M4N, and 200 mg (1 mL) M4N at each of four sites. Mortality, clinical observations, body weights, dermal irritation, gross necropsy findings, and microscopic pathology were evaluated. […] All injection sites were preserved in 10% neutral-buffered formalin (NBF).

HSV-2 = assay: Mouse vaginal model of HSV-2 infection; assay type: in vivo, CF-1 mice; conditions: 20 mg/ml in Vaseline
Protocol: The efficacies of […] (FIG. 8A) and […] (FIG. 8A) against HSV-2 in a mouse vaginal model system have also been examined. […] At the end of three days, the vaginal lavages were collected from the washings of the vagina regions. The status of the vaginal HSV-2 infection and replication were examined by their cytopathic effects on cultured human foreskin fibroblast cells. Monitoring and scoring were carried out by three persons independently.

HIV-1 = assay: microbe, parasite or virus in culture; conditions: Human immunodeficiency virus 1, IIIB, COS, read-out: Inhibitory Concentration (IC50 or EC50)
[10] = in vivo, 45 mg/kg; cited from earlier work
[11] = 14-day toxicity study in dogs, toxicokinetics; assay type: in vivo, beagle dogs; conditions: for highest mean plasma concentration: Day 14; for Tmax: read-out: median Tmax
Protocol: Three beagle dogs/sex/group received doses of 0 (0.50 mL/kg DMSO), 10, 50, and 100 mg/kg (0.05, 0.25, 0.5 mL/kg) M4N. Approximately 4 mL of blood was collected from the jugular vein at each sampling time point of 0.5, 1, 4, 8, and 12 hours after dosing on Days 1, 7, and 14. Three dogs/sex/group were rotated in ascending order for each dose group. Plasma was isolated and analyzed for M4N by HPLC assay.

ICP4 gene of HSV = assay: Inhibition of HSV ICP4 gene transcription; assay type: cell-based, HSV-1; conditions: previously determined
Text: as §1

HPV 16 = assay: HPV inhibition in C33A cells; assay type: cell-based; conditions: C-33-A, read-out: Inhibitory Concentration (IC50 or EC50)
[12] = mouse, in vivo
[13] = rabbit vaginal irritation study
[14] = all samples, Days 1 and 7, LOQ 0.4000
[15] = fourteen women, M4N ointment/placebo crossover

For `COc1ccc(C[C@@H](C)[C@@H](C)Cc2ccc(OC)c(OC)c2)cc1OC` [M4N, tetra-O-methyl-nordihydroguaiaretic acid], the “time remained stable at room temperature” value [1] is listed as 6 months, the “efficacy against acyclovir-resistant strains of HSV-1” value [2] is listed as “retains complete efficacy” and the “efficacy by time of first treatment after infection” value (HSV-1 [3]; 170 μM, first treated 10 min, 24 h, 48 h, 72 h after infection) is listed as “better efficacy when treatment commenced shortly, within 24, after infection”. The “inhibition of HSV-1 induced cutaneous lesion formation and viral shedding” value (HSV-1 [3]; topical application, guinea pig) was “effectively inhibited HSV-1 induced cutaneous lesion formation and viral shedding”, the “toxicity or dermal irritation” value (HSV-1 [3]; topical, even at the highest soluble concentrations (150 mM)) was “no evidence of toxicity or dermal irritation” and the IC50 (HSV-1 [4]; Human alphaherpesvirus 1, HSV-1 passage 1) was 11.7 µM. For the same compound, the IC50 (HSV-1 [4]; Human alphaherpesvirus 1, HSV-1 passage 2) was 4.4 µM, the IC50 (HSV-1 [4]; Human alphaherpesvirus 1, HSV-1 passage 3) was 8.24 µM and the IC50 (HSV-1 [4]; Human alphaherpesvirus 1, HSV-1 passage 4) was 5.97 µM. The IC50 (HSV-1 [4]; Human alphaherpesvirus 1, HSV-1 passage 5) was 6.48 µM, the IC50 (HSV-1 [4]; Human alphaherpesvirus 1, HSV-1 passage 6) was 6.98 µM and the IC50 (HSV-1 [4]; Human alphaherpesvirus 1, HSV-1 passage 7) was 6.98 µM. It also gave an IC50 (HSV-1 [4]; Human alphaherpesvirus 1, HSV-1 passage 8) of 9.91 µM, an IC50 (HSV-1 [4]; Human alphaherpesvirus 1, HSV-1 passage 9) of 8.82 µM and an IC50 (HSV-1 [4]; Human alphaherpesvirus 1, HSV-1 passage 10) of 4.77 µM. For the same compound, the “change in IC50 against HSV-1” value (HSV-1 [4]; following ten passages of virus) was “no increase in the IC50”, the early deaths ([5]; 2% w/w intravaginal, 1 mL once daily for 14 days) was “no early deaths” and the “gross pathology (enlarged liver, irregularly shaped femur, rabbit 32092)” value ([5]; Group 2) was “incidental findings and not test article related”. The hematology vs controls ([5]; Study Day 15, Group 2 (2% w/w), attributed to individual animal variation) was “statistically significant lower absolute basophil count”, the “clinical chemistry vs controls” value ([5]; Study Day 15, Group 2, attributed to individual animal variation) was “statistically significant lower ALT” and the “cumulation after day 14 dosing” value ([5]; female rabbits, topical per vaginam) was “no resultant evidence of cumulation”. The blood concentrations seen ([5]; female rabbits, topical per vaginam, 4 hours post first dose and day 14) was at most 10 ng/mL, the “start of absorption into the blood” value [5, 13] was 30 min and the “time of peak absorption into the blood” value [5, 13] was 4 h. The “effect on measured clinical pathology parameters” value ([5]; repeated intravaginal administration for 14 days) was “no apparent test article-related effect”, the “AUClast, females relative to males” value ([6]; Group 10, Day 14) was about 4 times and the plasma concentrations ([6]; Groups 8 and 9, Day 14, LOQ 0.4000) was under 400 ng/mL. The plasma concentrations [6, 14] was under 400 ng/mL, the Tmax ([6]; female, females, Group 10, Day 14) was 4 h and the Cmax ([6]; female, females) was 537 ng/mL. For the same compound, the Tlast ([6]; females) was 12 h, the Tmax ([6]; male, males, Group 10, Day 14) was 0.5 h and the Cmax ([6]; male, males) was 333 ng/mL. The Tlast ([6]; males) was 8 h, the “reduction of Sp1 regulated transcription of HPV E6/E7” value [7] was “dramatically reduces Sp1 regulated transcription of HPV E6/E7” and the tolerability ([8]; 90 mg (2% wt/wt) intravaginally once per day for 7 days, healthy women) was “well tolerated”. The “detection in serum pharmacokinetic samples” value ([8]; days 1 and 7, 1, 2, 4, 6 hours after dosing, lower limit of detection 1 ng/mL) was “no detection of M4N”, the abdominal pain reported [8, 15] was 1 subjects and the groin pain reported [8, 15] was 1 subjects. For the same compound, the headaches reported [8, 15] was 3 subjects, the tooth abscess reported [8, 15] was 1 subjects and the “upper respiratory tract infection reported” value [8, 15] was 2 subjects. For the same compound, the “application site irritation reported” value ([8]; might have been caused by the M4N ointment) was 1 subjects, the “histopathology of injection sites compared to DMSO vehicle sites” value ([9]; rabbit, in vivo, sc) was “slight increase in the intensity of reactions” and the “effect on body weight or mortality” value ([9]; single s.c. injection, any dose group) was “No treatment-related effect”. For the same compound, the “infection in the other 4 mice” value (HSV-2) was “very little infection”, the “mice fully infected, out of 8 mice” value (HSV-2) was 4 and the “score of the fully infected mice” value (HSV-2) was 34. The IC50 (HIV-1) was 11 µM, the “tolerability on intravenous administration” value [10] was “generally good tolerability” and the “highest mean plasma concentration” value ([11]; Group 3 (50 mg/kg)) was 1.004 µg/mL. For the same compound, the “AUClast, males relative to females” value ([11]; Group 3, Day 14) was “approximately 3 times”, the Tlast ([11]; Group 3 females) was 4 h and the “highest mean plasma concentration” value ([11]; Group 4 (100 mg/kg)) was 1.096 µg/mL. The “AUClast, males relative to females” value ([11]; Group 4, Day 14) was about 2 times, the plasma concentrations [11, 14] was under 400 ng/mL and the concentration at 14 day ([11]; both sexes, beagle, dog, plasma, Group 2 (10 mg/kg), Day 14, read-out: plasma concentration, only sample greater than LOQ) was 471 ng/mL. The Tmax ([11]; both sexes, beagle, dog, plasma, Groups 3 and 4 except Group 3 males) was 4 h, the Cmax ([11]; both sexes, beagle, dog, plasma, all groups) was 1000 ng/mL and the “median Tlast” value ([11]; except Group 3 females) was 12 h. For the same compound, the Tmax ([11]; male, beagle, dog, plasma, 50 mg/kg, Group 3 males) was 8 h, the “inhibition of ICP4 gene transcription” value (ICP4 gene of HSV) was “effectively inhibit ICP4 gene transcription” and the IC50 (HPV 16) was 30 µM. For the same compound, the toxicity [12] was “no toxicity”.
